Results: patent publication US20230174507A1, “IMIDAZOLE 3-OXIDE DERIVATIVE BASED ACSS2 INHIBITORS AND METHODS OF USE THEREOF” (METABOMED LTD., priority 2020, published 2023)

Tests used:
human ACSS2 protein = molecular target: T1, human ACSS2 protein (Homo sapiens, UniProt Q9NR19); assay: ACSS2 cell-free activity assay (pyrophosphatase-coupled, Biomol green); conditions: 10 nM human ACSS2, 90 minutes at 37 C, absorbance at 620 nm; read-out: ACSS2 Biochemical IC50
T1 construct: purchased OriGene Technologies, Inc
Procedure: ACSS2 Cell-Free Activity Assay (Cell-Free IC50)
(§1) The assay is based on a coupling reaction with Pyrophosphatase: ACSS2 is converting ATP+CoA+Acetate=>AMP+pyrophosphate+Acetyl-CoA (Ac-CoA). Pyrophosphatase converts pyrophosphate, a product of the ACSS2 reaction, to phosphate which can be detected by measuring the absorbance at 620 nm after incubation with the Biomol green reagent (Enzo life Science, BML-AK111).
(§2) Cell Free IC50 Determination:
(§3) 10 nM of human ACSS2 protein (OriGene Technologies, Inc) was incubated for 90 minutes at 37 C with various compounds' concentrations in a reaction containing 50 mM Hepes pH 7.5, 10 mM DTT, 90 mM KCl, 0.006% Tween-20, 0.1 mg/ml BSA, 2 mM MgCl2, 10 μM CoA, 5 mM NaAc, 300 μM ATP and 0.5 U/ml Pyrophosphatase (Sigma). At the end of the reaction, Biomol Green was added for 30 minutes at RT and the activity was measured by reading the absorbance at 620 nm. IC50 values were calculated using non-linear regression curve fit with 0% and 100% constrains (CDD Vault, Collaborative Drug Discovery, Inc.).

human ACSS1 protein = molecular target: T2, human ACSS1 protein (Homo sapiens, UniProt Q9NUB1); assay: ACSS1 cell-free activity assay (pyrophosphatase-coupled, Biomol green); format: biochemical; conditions: 5 nM human ACSS1, 30 minutes at room temperature, absorbance at 620 nm
T2 construct: purchased MyBioSource
T2 sequence (Q9NUB1 38-689): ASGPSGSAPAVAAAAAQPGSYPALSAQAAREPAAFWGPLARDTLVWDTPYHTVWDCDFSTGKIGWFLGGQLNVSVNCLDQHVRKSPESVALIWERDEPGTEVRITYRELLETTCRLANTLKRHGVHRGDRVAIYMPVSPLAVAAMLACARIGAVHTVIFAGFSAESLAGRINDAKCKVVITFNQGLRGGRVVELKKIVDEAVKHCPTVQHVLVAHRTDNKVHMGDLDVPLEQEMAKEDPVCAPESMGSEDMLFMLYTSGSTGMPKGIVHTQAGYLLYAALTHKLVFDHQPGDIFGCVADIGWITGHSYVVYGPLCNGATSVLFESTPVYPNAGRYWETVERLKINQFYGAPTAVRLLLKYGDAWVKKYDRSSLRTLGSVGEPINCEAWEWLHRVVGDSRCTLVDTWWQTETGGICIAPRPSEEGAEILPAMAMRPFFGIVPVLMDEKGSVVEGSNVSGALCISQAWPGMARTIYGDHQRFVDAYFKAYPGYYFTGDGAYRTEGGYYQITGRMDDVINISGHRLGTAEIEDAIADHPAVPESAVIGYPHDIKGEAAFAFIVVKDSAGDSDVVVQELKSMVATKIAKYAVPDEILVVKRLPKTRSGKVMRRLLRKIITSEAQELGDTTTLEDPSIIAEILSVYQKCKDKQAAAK
Procedure: ACSS1 Cell-Free Activity Assay (Cell-Free IC50)
as §1, with “ACSS1” for “ACSS2”
as §2
as §3, with “5 nM” for “10 nM”, “human ACSS1” for “human ACSS2”, “protein (MyBioSource)” for “protein (OriGene Technologies, Inc)”, “for 30” for “for 90”, “at room temperature” for “at 37 C”, “MgCl2, 15” for “MgCl2, 10”

T1 sequence (Q9NR19 whole entry): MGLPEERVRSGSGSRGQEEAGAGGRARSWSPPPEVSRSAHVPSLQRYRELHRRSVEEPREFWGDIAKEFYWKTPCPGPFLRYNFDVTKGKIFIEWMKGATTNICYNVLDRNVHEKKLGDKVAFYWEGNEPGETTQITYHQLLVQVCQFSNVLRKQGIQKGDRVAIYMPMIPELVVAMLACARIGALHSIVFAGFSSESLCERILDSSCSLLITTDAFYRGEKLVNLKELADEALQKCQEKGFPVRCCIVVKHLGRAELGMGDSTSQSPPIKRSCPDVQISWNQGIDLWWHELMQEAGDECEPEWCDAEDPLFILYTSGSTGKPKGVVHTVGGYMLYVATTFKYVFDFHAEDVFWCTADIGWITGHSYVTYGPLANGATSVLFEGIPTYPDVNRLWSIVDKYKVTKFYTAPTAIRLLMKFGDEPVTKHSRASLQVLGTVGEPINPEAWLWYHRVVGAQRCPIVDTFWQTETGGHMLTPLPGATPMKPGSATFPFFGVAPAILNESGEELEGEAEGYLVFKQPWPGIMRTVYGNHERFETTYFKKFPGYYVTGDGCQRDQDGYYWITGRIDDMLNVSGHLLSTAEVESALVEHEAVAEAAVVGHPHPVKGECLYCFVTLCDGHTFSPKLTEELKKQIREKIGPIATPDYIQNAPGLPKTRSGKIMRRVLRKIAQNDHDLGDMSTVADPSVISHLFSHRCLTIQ

| IC50 (human ACSS2 protein) [nM] | ACSS1 Biochemical IC50 (nM) (human ACSS1 protein) | Structure (SMILES) |
| --- | --- | --- |
| 1 to 30 | Inactive | CCC(F)(F)c1cccc(NC(=O)c2c(C)[nH]c(-c3ccc(C(C)C)c(-c4c(C)cccc4C)c3)[n+]2[O-])c1 [Compound 117, 4-((3-(1,1-difluoropropyl)phenyl)carbamoyl)-2-(6-isopropyl-2′,6′-dimethyl-[1,1′-biphenyl]-3-yl)-5-methyl-1H-imidazole 3-oxide] |
| > 30 | Inactive | CCC(F)(F)c1cccc(NC(=O)c2c(C)[nH]c(-c3ccc(OC)c(-c4ncccn4)c3C)[n+]2[O-])c1 [Compound 118, 4-((3-(1,1-difluoropropyl)phenyl)carbamoyl)-2-(4-methoxy-2-methyl-3-(pyrimidin-2-yl)phenyl)-5-methyl-1H-imidazole 3-oxide] |
| 1 to 30 |  | CCC(F)(F)c1cccc(NC(=O)c2c(C)[nH]c(-c3cc(C)cc(-c4c(C)cccc4C)c3)[n+]2[O-])c1 [Compound 130, 4-((3-(1,1-difluoropropyl)phenyl)carbamoyl)-5-methyl-2-(2′,5,6′-trimethyl-[1,1′-biphenyl]-3-yl)-1H-imidazole 3-oxide] |
| 1 to 30 | Inactive | Cc1cccc(C)c1-c1cc(-c2ccccc2)cc(-c2[nH]c(C)c(C(=O)Nc3cccc(C(F)(F)C4CC4)c3)[n+]2[O-])c1 [Compound 133, 4-((3-(cyclopropyldifluoromethyl)phenyl)carbamoyl)-2-(2,6-dimethyl-[1,1′:3′,1″-terphenyl]-5′-yl)-5-methyl-1H-imidazole 3-oxide] |
| > 30 | Inactive | COCCN(C)C(=O)c1cccc(NC(=O)c2c(C)[nH]c(-c3ccc(OC)c(-c4c(C)cccc4C)c3)[n+]2[O-])c1 [Compound 141, 2-(6-methoxy-2′,6′-dimethyl-[1,1′-biphenyl]-3-yl)-4-((3-((2-methoxyethyl)(methyl)carbamoyl)phenyl)carbamoyl)-5-methyl-1H-imidazole 3-oxide] |
| 1 to 30 | Inactive | CCC(F)(F)c1cccc(NC(=O)c2c(C)[nH]c(-c3ccc(OC)c(N4CCOCC4)c3)[n+]2[O-])c1 [Compound 150, 4-((3-(1,1-difluoropropyl)phenyl)carbamoyl)-2-(4-methoxy-3-morpholinophenyl)-5-methyl-1H-imidazole 3-oxide] |

Further lines, the molecule ahead of its results:

| Structure (SMILES) | IC50 (human ACSS2 protein) [nM] | ACSS1 Biochemical IC50 (nM) (human ACSS1 protein) |
| --- | --- | --- |
| CCC(F)(F)c1cccc(NC(=O)c2c(C)[nH]c(-c3ccc(OC)c(-c4cccnn4)c3C)[n+]2[O-])c1 [Compound 122, 4-((3-(1,1-difluoropropyl)phenyl)carbamoyl)-2-(4-methoxy-2-methyl-3-(pyridazin-3-yl)phenyl)-5-methyl-1H-imidazole 3-oxide] | > 30 | Inactive |
| CCC(F)(F)c1cccc(NC(=O)c2c(C)[nH]c(-c3ccc(OC)c(-c4cnccn4)c3C)[n+]2[O-])c1 [Compound 127, 4-((3-(1,1-difluoropropyl)phenyl)carbamoyl)-2-(4-methoxy-2-methyl-3-(pyrazin-2-yl)phenyl)-5-methyl-1H-imidazole 3-oxide] | > 30 | Inactive |
| CCC(F)(F)c1cccc(NC(=O)c2c(C)[nH]c(-c3ccc(OC)c(-c4c(C(F)(F)F)cccc4C(F)(F)F)c3)[n+]2[O-])c1 [Compound 128, 4-((3-(1,1-difluoropropyl)phenyl)carbamoyl)-2-(6-methoxy-2′,6′-bis(trifluoromethyl)-[1,1′-biphenyl]-3-yl)-5-methyl-1H-imidazole 3-oxide] | 1 to 30 | Inactive |
| Cc1cccc(C)c1-c1cc(-c2c(C)cccc2C)cc(-c2[nH]c(C)c(C(=O)Nc3cccc(C(F)(F)C4CC4)c3)[n+]2[O-])c1 [Compound 132, 4-((3-(cyclopropyldifluoromethyl)phenyl)carbamoyl)-5-methyl-2-(2,2″,6,6″-tetramethyl-[1,1′:3′,1″-terphenyl]-5′-yl)-1H-imidazole 3-oxide] | 1 to 30 | Inactive |
| Cc1cccc(C)c1-c1cc(-c2[nH]c(C)c(C(=O)Nc3cccc(C(F)(F)C4CC4)c3)[n+]2[O-])cc(C(C)C)c1 [Compound 134, 4-((3-(cyclopropyldifluoromethyl)phenyl)carbamoyl)-2-(5-isopropyl-2′,6′-dimethyl-[1,1′-biphenyl]-3-yl)-5-methyl-1H-imidazole 3-oxide] | 1 to 30 | Inactive |
| Cc1cccc(C)c1-c1cc(Br)cc(-c2[nH]c(C)c(C(=O)Nc3cccc(C(F)(F)C4CC4)c3)[n+]2[O-])c1 [Compound 136, 2-[3-bromo-5-(2,6-dimethylphenyl)phenyl]-N-[3-[cyclopropyl(difluoro)methyl]phenyl]-5-methyl-3-oxido-1H-imidazol-3-ium-4-carboxamide] | 1 to 30 | Inactive |
| COc1ccc(-c2[nH]c(C)c(C(=O)Nc3cccc(C(=O)N4CCCC4)c3)[n+]2[O-])cc1-c1c(C)cccc1C [Compound 138, 2-[3-(2,6-dimethylphenyl)-4-methoxy-phenyl]-5-methyl-3-oxido-N-[3-(pyrrolidine-1-carbonyl)phenyl]-1H-imidazol-3-ium-4-carboxamide] | > 30 | Inactive |
| COc1ccc(-c2[nH]c(C)c(C(=O)Nc3cccc(C(=O)N4CCCCC4)c3)[n+]2[O-])cc1-c1c(C)cccc1C [Compound 139, 2-(6-methoxy-2′,6′-dimethyl-[1,1′-biphenyl]-3-yl)-5-methyl-4-((3-(piperidine-1-carbonyl)phenyl)carbamoyl)-1H-imidazole 3-oxide] | > 30 | Inactive |
| CCN(C)C(=O)c1cccc(NC(=O)c2c(C)[nH]c(-c3ccc(OC)c(-c4c(C)cccc4C)c3)[n+]2[O-])c1 [Compound 140, 4-((3-(ethyl(methyl)carbamoyl)phenyl)carbamoyl)-2-(6-methoxy-2′,6′-dimethyl-[1,1′-biphenyl]-3-yl)-5-methyl-1H-imidazole 3-oxide] | 1 to 30 | Inactive |
| CCC(F)(F)c1cccc(NC(=O)c2c(C)[nH]c(-c3ccc(OC)c(-c4ccncn4)c3C)[n+]2[O-])c1 [Compound 144, 4-((3-(1,1-difluoropropyl)phenyl)carbamoyl)-2-(4-methoxy-2-methyl-3-(pyrimidin-4-yl)phenyl)-5-methyl-1H-imidazole 3-oxide] | > 30 | Inactive |
| CCC(F)(F)c1cccc(NC(=O)c2c(C)[nH]c(-c3ccc(OC)c(C4CCCCC4)c3)[n+]2[O-])c1 [Compound 145, 2-(3-cyclohexyl-4-methoxyphenyl)-4-((3-(1,1-difluoropropyl)phenyl)carbamoyl)-5-methyl-1H-imidazole 3-oxide] | > 30 | Inactive |
| COc1ccc(-c2[nH]c(C)c(C(=O)Nc3cccc(C(=O)N4CCOCC4)c3)[n+]2[O-])cc1-c1c(C)cccc1C [Compound 148, 2-(6-methoxy-2′,6′-dimethyl-[1,1′-biphenyl]-3-yl)-5-methyl-4-((3-(morpholine-4-carbonyl)phenyl)carbamoyl)-1H-imidazole 3-oxide] | > 30 | Inactive |
